Test results taken from ChEMBL document CHEMBL3991601, “The target landscape of clinical kinase drugs” (Science, 2017).
Structures can show the parent of a compound that is named as a salt. Activity calls are given as the source filed them.

Tests used:
[1] = molecular target: Proto-oncogene tyrosine-protein kinase Src (Homo sapiens, UniProt P12931)
[2] = molecular target: T1, Acyl-CoA dehydrogenase family member 10 (Homo sapiens, UniProt Q6JQN1)
T1 sequence (Q6JQN1 whole entry): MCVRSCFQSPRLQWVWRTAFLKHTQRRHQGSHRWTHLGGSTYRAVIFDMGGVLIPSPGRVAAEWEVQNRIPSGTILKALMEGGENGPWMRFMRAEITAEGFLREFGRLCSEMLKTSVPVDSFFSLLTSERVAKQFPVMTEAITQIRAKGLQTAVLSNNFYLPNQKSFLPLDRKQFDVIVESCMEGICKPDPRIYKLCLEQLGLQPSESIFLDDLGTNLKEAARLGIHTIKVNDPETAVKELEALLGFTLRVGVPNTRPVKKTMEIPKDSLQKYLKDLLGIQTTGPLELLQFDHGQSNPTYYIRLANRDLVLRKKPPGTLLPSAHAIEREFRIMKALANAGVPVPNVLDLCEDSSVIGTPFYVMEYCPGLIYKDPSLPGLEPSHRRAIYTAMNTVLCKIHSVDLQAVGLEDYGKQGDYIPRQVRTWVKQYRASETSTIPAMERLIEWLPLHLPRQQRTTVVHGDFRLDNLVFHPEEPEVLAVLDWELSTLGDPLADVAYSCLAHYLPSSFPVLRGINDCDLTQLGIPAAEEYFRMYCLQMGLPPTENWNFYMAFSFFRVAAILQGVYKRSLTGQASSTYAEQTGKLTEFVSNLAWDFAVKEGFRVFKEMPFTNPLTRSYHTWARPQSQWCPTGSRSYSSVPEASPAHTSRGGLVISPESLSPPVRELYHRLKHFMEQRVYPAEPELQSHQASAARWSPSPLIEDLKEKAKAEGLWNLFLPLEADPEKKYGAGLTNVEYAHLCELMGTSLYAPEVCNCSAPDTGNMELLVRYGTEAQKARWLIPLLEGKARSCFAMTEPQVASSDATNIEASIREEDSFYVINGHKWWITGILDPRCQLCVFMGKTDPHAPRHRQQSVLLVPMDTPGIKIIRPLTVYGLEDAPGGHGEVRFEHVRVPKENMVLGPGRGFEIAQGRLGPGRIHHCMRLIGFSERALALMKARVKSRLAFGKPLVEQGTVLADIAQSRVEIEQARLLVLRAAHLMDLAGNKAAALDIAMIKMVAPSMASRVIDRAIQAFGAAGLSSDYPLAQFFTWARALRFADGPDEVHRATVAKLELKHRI

[3] = molecular target: Tyrosine-protein kinase Yes (Homo sapiens, UniProt P07947)
Chain of Tyrosine-protein kinase Yes (P07947 whole entry): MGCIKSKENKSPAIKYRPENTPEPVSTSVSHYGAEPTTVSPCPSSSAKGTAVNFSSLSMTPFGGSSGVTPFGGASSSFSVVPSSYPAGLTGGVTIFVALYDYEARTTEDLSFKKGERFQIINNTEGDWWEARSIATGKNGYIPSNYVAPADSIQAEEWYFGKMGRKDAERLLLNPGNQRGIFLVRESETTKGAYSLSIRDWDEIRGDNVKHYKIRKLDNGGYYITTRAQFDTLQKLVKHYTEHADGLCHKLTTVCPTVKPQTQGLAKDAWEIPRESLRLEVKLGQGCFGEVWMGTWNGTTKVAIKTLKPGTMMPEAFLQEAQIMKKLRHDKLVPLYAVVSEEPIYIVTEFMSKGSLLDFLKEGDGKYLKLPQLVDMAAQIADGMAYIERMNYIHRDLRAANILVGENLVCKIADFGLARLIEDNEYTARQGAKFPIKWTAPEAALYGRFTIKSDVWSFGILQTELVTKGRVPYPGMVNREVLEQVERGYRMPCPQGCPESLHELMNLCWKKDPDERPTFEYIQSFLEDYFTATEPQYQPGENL

[4] = molecular target: T2, ATP-dependent RNA helicase DDX42 (Homo sapiens, UniProt Q86XP3)
T2 sequence (Q86XP3 whole entry): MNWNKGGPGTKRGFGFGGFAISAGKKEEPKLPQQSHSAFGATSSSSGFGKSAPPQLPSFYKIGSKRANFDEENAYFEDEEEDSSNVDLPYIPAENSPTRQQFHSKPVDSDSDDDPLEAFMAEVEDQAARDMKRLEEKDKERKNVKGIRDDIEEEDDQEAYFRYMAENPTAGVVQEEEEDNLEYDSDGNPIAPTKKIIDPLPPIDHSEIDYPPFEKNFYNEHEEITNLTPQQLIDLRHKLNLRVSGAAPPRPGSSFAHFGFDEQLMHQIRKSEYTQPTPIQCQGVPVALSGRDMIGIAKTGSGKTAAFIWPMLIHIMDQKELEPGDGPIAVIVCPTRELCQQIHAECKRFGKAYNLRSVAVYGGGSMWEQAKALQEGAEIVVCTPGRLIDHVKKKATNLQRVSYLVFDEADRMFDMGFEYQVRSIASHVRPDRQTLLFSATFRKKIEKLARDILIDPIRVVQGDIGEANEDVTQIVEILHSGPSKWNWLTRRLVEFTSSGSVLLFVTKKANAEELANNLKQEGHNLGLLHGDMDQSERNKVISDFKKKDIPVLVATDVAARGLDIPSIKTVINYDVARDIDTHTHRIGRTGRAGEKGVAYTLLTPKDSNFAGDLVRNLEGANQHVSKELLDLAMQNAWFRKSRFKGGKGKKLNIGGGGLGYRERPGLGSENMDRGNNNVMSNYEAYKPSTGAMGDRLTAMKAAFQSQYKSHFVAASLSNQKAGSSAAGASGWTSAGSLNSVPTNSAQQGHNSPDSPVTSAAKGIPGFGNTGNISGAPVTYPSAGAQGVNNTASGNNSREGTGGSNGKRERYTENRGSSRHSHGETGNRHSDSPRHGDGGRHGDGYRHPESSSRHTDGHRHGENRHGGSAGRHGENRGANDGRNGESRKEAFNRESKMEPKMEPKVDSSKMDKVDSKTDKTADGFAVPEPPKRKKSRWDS
Also: in the data inactive means no Kd found up to 30 µM.

Chain of Proto-oncogene tyrosine-protein kinase Src (P12931 2-536 limits assumed): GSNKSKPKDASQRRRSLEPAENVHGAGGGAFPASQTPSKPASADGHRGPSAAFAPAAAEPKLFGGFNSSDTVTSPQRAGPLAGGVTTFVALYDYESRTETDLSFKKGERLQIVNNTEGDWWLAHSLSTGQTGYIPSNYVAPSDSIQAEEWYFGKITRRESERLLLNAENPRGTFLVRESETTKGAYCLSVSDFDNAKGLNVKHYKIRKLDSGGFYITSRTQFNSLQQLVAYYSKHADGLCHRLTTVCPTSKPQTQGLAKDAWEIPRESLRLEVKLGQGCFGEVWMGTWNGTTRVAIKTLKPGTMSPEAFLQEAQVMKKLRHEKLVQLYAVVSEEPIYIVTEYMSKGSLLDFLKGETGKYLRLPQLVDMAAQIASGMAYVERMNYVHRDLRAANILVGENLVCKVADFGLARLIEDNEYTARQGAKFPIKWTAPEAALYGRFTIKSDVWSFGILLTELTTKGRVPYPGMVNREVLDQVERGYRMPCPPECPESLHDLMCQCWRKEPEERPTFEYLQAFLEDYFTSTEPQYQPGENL

Structure (SMILES)	Kd [1]	Kd [2]	Kd [3]	Kd [4]
C=CC(=O)Nc1cc2c(Nc3ccc(F)c(Cl)c3)ncnc2cc1C#CC(C)(C)N1CCN(C)CC1 [AV-412 FREE BASE]	> 30 µM (inactive)	> 30 µM (inactive)	6.27 µM (active)	> 30 µM (inactive)
Cn1cnc2c(F)c(Nc3ccc(Br)cc3F)c(C(=O)NOCCO)cc21 [BINIMETINIB]	> 30 µM (inactive)	> 30 µM (inactive)	> 30 µM (inactive)	> 30 µM (inactive)
Cc1cc(Nc2ncc(Cl)c(Nc3ccccc3S(=O)(=O)C(C)C)n2)c(OC(C)C)cc1C1CCNCC1 [CERITINIB]	> 30 µM (inactive)	> 30 µM (inactive)	> 30 µM (inactive)	> 30 µM (inactive)
COc1c(OCCCN2CCOCC2)ccc2c1N=C(NC(=O)c1cnc(N)nc1)N1CCN=C21 [COPANLISIB]	> 30 µM (inactive)	> 30 µM (inactive)	> 30 µM (inactive)	> 30 µM (inactive)
CCS(=O)(=O)N1CCN(c2ccc(Nc3ncc(C(N)=O)c(NC4CC4)n3)cc2)CC1 [Cerdulatinib Hydrochloride]	> 30 µM (inactive)	> 30 µM (inactive)	> 30 µM (inactive)	> 30 µM (inactive)
CC(C)(C)c1nc(-c2cccc(NS(=O)(=O)c3c(F)cccc3F)c2F)c(-c2ccnc(N)n2)s1 [DABRAFENIB]	> 30 µM (inactive)	> 30 µM (inactive)	1.28 µM	> 30 µM (inactive)
Cc1nc2cc(-n3ncc(C(=O)c4cc5ccccc5[nH]4)c3N)ccc2[nH]1 [FGFR INHIBITOR DEBIO 1347]	> 30 µM (inactive)	> 30 µM (inactive)	> 30 µM (inactive)	> 30 µM (inactive)
O=C(Nc1nc2cccc(-c3ccc(CN4CCS(=O)(=O)CC4)cc3)n2n1)C1CC1 [FILGOTINIB]	> 30 µM (inactive)	> 30 µM (inactive)	> 30 µM (inactive)	> 30 µM (inactive)
Cc1cccc(-c2nn3c(c2-c2ccnc4ccc(C(N)=O)cc24)CCC3)n1 [GALUNISERTIB]	> 30 µM (inactive)	> 30 µM (inactive)	> 30 µM (inactive)	> 30 µM (inactive)
O=C(Nc1cc(C(F)(F)F)cc(C(F)(F)F)c1)c1cc(Cl)ccc1O [IMD-0354]	> 30 µM (inactive)	> 30 µM (inactive)	> 30 µM (inactive)	> 30 µM (inactive)
CNC(=O)c1cccc2cc(Oc3ccnc4cc(OCC5(N)CC5)c(OC)cc34)ccc12 [LUCITANIB]	> 30 µM (inactive)	> 30 µM (inactive)	> 30 µM (inactive)	> 30 µM (inactive)
CNC(=O)c1nn(C)c2c1C(C)(C)Cc1cnc(Nc3ccc(N4CCN(C)CC4)cc3)nc1-2 [MILCICLIB]	5.31 µM (active)	> 30 µM (inactive)	3.79 µM (active)	> 30 µM (inactive)
CCOc1cc2ncc(C#N)c(Nc3ccc(F)c(Cl)c3)c2cc1NC(=O)/C=C/CN(C)C [PELITINIB]	> 30 µM (inactive)	> 30 µM (inactive)	> 30 µM (inactive)	> 30 µM (inactive)
CCCCCCCCCCCCCCCCCCOP(=O)([O-])OC1CC[N+](C)(C)CC1 [PERIFOSINE]	> 30 µM (inactive)	> 30 µM (inactive)	> 30 µM (inactive)	> 30 µM (inactive)
Cc1cnc(NC(=O)Nc2cc(Br)c(C)cc2OC[C@@H]2CNCCO2)cn1 [RABUSERTIB]	> 30 µM (inactive)	> 30 µM (inactive)	> 30 µM (inactive)	> 30 µM (inactive)
CO[C@H]1C[C@@H]2CC[C@@H](C)[C@@](O)(O2)C(=O)C(=O)N2CCCC[C@H]2C(=O)O[C@H]([C@H](C)C[C@@H]2CC[C@@H](OP(C)(C)=O)[C@H](OC)C2)CC(=O)[C@H](C)/C=C(\C)[C@@H](O)[C@@H](OC)C(=O)[C@H](C)C[C@H](C)/C=C/C=C/C=C/1C [RIDAFOROLIMUS]	> 30 µM (inactive)	> 30 µM (inactive)	> 30 µM (inactive)	> 30 µM (inactive)
N#CC1(c2ccc(NC(=O)c3cccnc3NCc3ccncc3)cc2)CCCC1 [RIVOCERANIB]	> 30 µM (inactive)	> 30 µM (inactive)	> 30 µM (inactive)	> 30 µM (inactive)
O=c1[nH]ccc2cc(OC3CCNCC3)ccc12 [SAR-407899 FREE BASE]	> 30 µM (inactive)	> 30 µM (inactive)	> 30 µM (inactive)	> 30 µM (inactive)
CO[C@H]1C[C@@H]2CC[C@@H](C)[C@@](O)(O2)C(=O)C(=O)N2CCCC[C@H]2C(=O)O[C@H]([C@H](C)C[C@@H]2CC[C@@H](OC(=O)C(C)(CO)CO)[C@H](OC)C2)CC(=O)[C@H](C)/C=C(\C)[C@@H](O)[C@@H](OC)C(=O)[C@H](C)C[C@H](C)/C=C/C=C/C=C/1C [TEMSIROLIMUS]	> 30 µM (inactive)	> 30 µM (inactive)	> 30 µM (inactive)	> 30 µM (inactive)
COc1cc2c(Nc3ccc(Cl)c(Cl)c3F)ncnc2cc1OC[C@@H]1C[C@@H]2CN(C)C[C@@H]2C1 [TESEVATINIB]	1.13 µM (active)	> 30 µM (inactive)	3.94 µM (active)	> 30 µM (inactive)
O=C(Cc1ccc(-c2ccc(OCCN3CCOCC3)cc2)cn1)NCc1ccccc1 [TIRBANIBULIN]	> 30 µM (inactive)	> 30 µM (inactive)	> 30 µM (inactive)	> 30 µM (inactive)

Continued, values first:

Kd [1]	Kd [2]	Kd [3]	Kd [4]	Structure (SMILES)
> 30 µM (inactive)	> 30 µM (inactive)	> 30 µM (inactive)	> 30 µM (inactive)	CCn1c(C(=O)N(C2CC2)C2CC2)cc2c3c(ncn3C)c(Nc3cc(C)n(C)n3)nc21 [BMS-911543]
> 30 µM (inactive)	> 30 µM (inactive)	> 30 µM (inactive)	> 30 µM (inactive)	COc1cc2ncnc(Oc3cccc(NC(=O)Nc4cc(C(C)(C)C(F)(F)F)on4)c3)c2cc1OC [CEP-32496]
> 30 µM (inactive)	> 30 µM (inactive)	> 30 µM (inactive)	> 30 µM (inactive)	COCC(=O)NC/C=C/c1ccc2ncnc(Nc3ccc(Oc4ccc(C)nc4)c(C)c3)c2c1 [CP-724714]
> 30 µM (inactive)	> 30 µM (inactive)	> 30 µM (inactive)	> 30 µM (inactive)	C#Cc1cccc(Nc2ncnc3cc(OC)c(OCCCCCCC(=O)NO)cc23)c1 [CUDC-101]
> 30 µM (inactive)	> 30 µM (inactive)	> 30 µM (inactive)	> 30 µM (inactive)	NC1(c2ccc(-c3nc4ccn5c(=O)[nH]nc5c4cc3-c3ccccc3)cc2)CCC1 [MK-2206]
> 30 µM (inactive)	> 30 µM (inactive)	> 30 µM (inactive)	> 30 µM (inactive)	Cn1cc(-c2cnc3ccc4ccc(CS(=O)(=O)NCc5ccccn5)cc4c(=O)c3c2)cn1 [MK-8033]
2.08 µM (active)	> 30 µM (inactive)	5.56 µM (active)	> 30 µM (inactive)	Cc1nc(Nc2n[nH]c3c2CN(C(=O)N[C@H](CN(C)C)c2ccccc2)C3(C)C)c2sccc2n1 [PF-03758309]
> 30 µM (inactive)	> 30 µM (inactive)	> 30 µM (inactive)	> 30 µM (inactive)	Cn1cc(-c2cnn3c(N)c(Br)c([C@@H]4CCCNC4)nc23)cn1 [SCH-900776]
